Series [1] addresses T1, hCB1 receptor (Homo sapiens, UniProt P21554). The series can be described thus: Test IV: CB1 functional assay ([35S]GTPγS binding). The class given is biochemical. Conditions: hCB1 receptor membrane (HEK293 cells). Also on record: purchased Receptor Biology Inc RBhCB1 382200; host or cells: HEK293 cells, membrane preparation. (In general: GTPγS is a poorly hydrolysed GTP analogue; its binding reports G protein activation.)
Experimental: G-protein activation is used as a functional measure of receptor-ligand association for G-protein coupled receptors. The basic mechanism behind G-protein activation is the exchange of bound guanosine 5′-diphosphate (GDP) for guanosine 5′-triphosphate (GTP). Using a radioactive, non-hydrolyzable form of GTP, such as guanosine 5′-O-(3-[^35S]thiophosphate ([^35S]GTPγS), G-protein activation is assessed by measuring the accumulation of membrane-bound radioactivity in response to receptor activation.
The plate is sealed with a topseal A cover and vortexed for 2 minutes. The plate is incubated at room temperature for 60 min., centrifuged (Beckman 6JB) at 800 g for 5 minutes and counted on a Topcount for 3 minutes.
Non-specific binding is determined using 10 μM GTPγS, and this is subtracted from all values. Basal binding is assayed in the absence of agonist and in the presence of GDP. The stimulation by agonist is defined as a percentage increase above basal levels, i.e., {[cpm(agonist)−cpm(no agonist)]/cpm(no agonist)}×100
Data are reported as mean ±S.E.M. of one to six experiments performed in triplicate. Non-linear regression analysis of concentration-response data is performed using Origin version 5, (logistics algorithm; Microcal Software Inc. MA, USA) to calculate percentage maximal effect (Emax, %) and EC50 (nM) values. […]

The target of series [2] is T1, hCB1 receptor. The series can be described thus: Test I: CB1 receptor binding assay ([3H]CP55940 displacement). Also on record: purchased Receptor Biology, Beltsville, Md; host or cells: HEK293 cells (transfected), membrane preparation. Conditions: membranes from HEK293 cells, Ki from IC50 by Cheng-Prussoff. On the procedure: More particularly the agents of the invention are active at the human CB1 and CB2 receptor.
(§1) The assay mixture comprises 75 μL of membrane suspension [membranes from HEK293 cells transfected with human CB1 receptors from Receptor Biology, Beltsville, Md.; 133 μg/mL in assay buffer (50 mM Tris-HCl, 2.5 mM EDTA, 5 mM MgCl2 5 mg/mL BSA, pH7.4), approx, 10 μg/well)], 25 μL WGA-YS beads [Yttrium silicate beads coated with wheat germ agglutinin, Amersham (40 mg/mL, 1 mg/well)], 50 μL test compound in 4% DMSO and 50 μL radioligand {[^3H]CP55940 (180 Ci/mmol), New England Nuclear; final concentration 0.125 nM, in assay buffer}. All components are mixed, shaken at room temperature for 2 hours, then counted on a Topcount. Non-saturable binding is measured in the presence of 10 μM (R)-(+)-[2,3-dihydro-5-methyl-3-[(4-morpholinyl)methyl]pyrrolo[1,2,3-de]-1,4-benzoxazin-6-yl](1-naphthalenyl)methanone (WIN55,212-2, Tocris).
The IC50 values are calculated in ORIGIN using a logistic fit. Ki values are calculated from the IC50 values using the Cheng-Prussoff equation (Ki=IC50/(1+([L]/Kd)) where [L] is the ligand concentration. • Test II: CB2 Receptor Binding Assay

In series [3] the test system is neuropathic pain induced by partial ligation of the sciatic nerve. The series can be described thus: Test III: Neuropathic pain model (partial ligation of the sciatic nerve, mechanical hyperalgesia). Conditions: p.o.; dose necessary to produce 50% reversal of hyperalgesia. In kind it is in vivo, Wistar-rats. The source says: Activity specifically as analgesic agents may be confirmed in accordance with standard test methods, e.g. as described in the following test. • Test III: Neuropathic Pain Model
Hyperalgesia is examined in the model of neuropathic pain induced by partial ligation of the sciatic nerve as described by Seltzer et al. (1990). Briefly, Wistar-rats (120-140 g) are anaesthetised, the left sciatic nerve exposed at mid-thigh level through a small incision and ⅓ to ½ of the nerve thickness tightly ligated within a 7.0 silk suture. The wound is closed with a single muscle suture and skin clips and dusted with Aureomycin antibiotic powder. The animals are allowed to recover and used 12-15 days following surgery.
Mechanical hyperalgesia is assessed by measuring paw withdrawal thresholds to an increasing pressure stimulus placed onto the dorsal surface of the paw using an analgesymeter (Ugo-Basile, Milan) with a cut-off of 250 g. Withdrawal thresholds are measured on both the ipsilateral (ligated) and contralateral (unligated) paw prior to (predose) and then up to 6 h following drug or vehicle administration. Data are expressed as withdrawal threshold (g) and percentage reversal of hyperalgesia calculated according to the following formula:
[formula] • Potency is expressed as D50 value, i.e. the dose of compound necessary to produce 50% reversal of hyperalgesia.

For the next series, the target named is T2, human CB2 receptors (Homo sapiens, UniProt P34972).
T2 construct: purchased Receptor Biology, Beltsville, Md; host or cells: CHOK1 cells (transfected), membrane preparation
T2 sequence (P34972 whole entry): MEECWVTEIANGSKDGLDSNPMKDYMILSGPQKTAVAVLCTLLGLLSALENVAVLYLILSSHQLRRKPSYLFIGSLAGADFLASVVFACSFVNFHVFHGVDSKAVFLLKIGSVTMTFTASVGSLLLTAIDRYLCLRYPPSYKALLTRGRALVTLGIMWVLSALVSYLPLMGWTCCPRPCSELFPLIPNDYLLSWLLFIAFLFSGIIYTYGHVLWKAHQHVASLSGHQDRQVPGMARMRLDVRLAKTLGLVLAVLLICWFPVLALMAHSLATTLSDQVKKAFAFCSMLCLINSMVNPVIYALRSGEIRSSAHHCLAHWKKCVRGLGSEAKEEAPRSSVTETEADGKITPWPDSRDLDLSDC
The series can be described thus: Test II: CB2 receptor binding assay ([3H]CP55940 displacement). As to conditions: membranes from CHOK1 cells, Ki from IC50 by Cheng-Prussoff. The protocol:
as §1, with “CHOK1” for “HEK293”, “CB2” for “CB1”, “mg/well)),” for “mg/well)],”, “(R)-(+)-[2,3-d]hydro-5-methyl-3-[(4-morpholinyl)methyl]pyrrolo[1,2,3-de]-1,4-benzoxazin-6-yl](1-naphthalenyl)methanone” for “(R)-(+)-[2,3-dihydro-5-methyl-3-[(4-morpholinyl)methyl]pyrrolo[1,2,3-de]-1,4-benzoxazin-6-yl](1-naphthalenyl)methanone”
The IC50 values are calculated in ORIGIN using a logistic fit. Ki values are calculated from the IC50 values using the Cheng-Prussoff equation (Ki=IC50/(1+([L]/Kd)) where [L] is the ligand concentration.

The structures appear in SMILES notation. Structures can show the parent of a compound that is named as a salt.

What is called melting point is the temperature, or range, at which the solid turns liquid. What is called EC50 is the concentration giving half of the maximal effect. Broadly, the Ki is the equilibrium dissociation constant of an inhibitor or competing ligand from its target. A lower Ki goes with tighter binding.

T1 sequence (P21554 whole entry): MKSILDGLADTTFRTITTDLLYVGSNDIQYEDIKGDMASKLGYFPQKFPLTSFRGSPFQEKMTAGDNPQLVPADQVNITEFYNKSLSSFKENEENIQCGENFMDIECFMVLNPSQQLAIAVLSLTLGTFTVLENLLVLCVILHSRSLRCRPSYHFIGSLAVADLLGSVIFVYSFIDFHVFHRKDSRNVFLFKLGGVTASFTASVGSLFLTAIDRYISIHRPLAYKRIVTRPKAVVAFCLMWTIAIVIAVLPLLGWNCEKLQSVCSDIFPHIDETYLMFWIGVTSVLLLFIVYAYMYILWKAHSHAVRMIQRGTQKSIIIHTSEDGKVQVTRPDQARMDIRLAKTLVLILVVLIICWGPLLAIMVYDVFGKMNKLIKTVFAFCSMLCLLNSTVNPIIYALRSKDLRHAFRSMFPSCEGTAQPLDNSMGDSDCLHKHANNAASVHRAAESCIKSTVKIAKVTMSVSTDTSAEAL

Consider `CCNC(=O)OCc1nc2cc(C)c(C(=O)OCC)c(C)c2c(=O)n1-c1ccccc1S(=O)(=O)NC` (as salt: hydrochloride), for which the melting point fell in the range of 126 to 130 °C.
`CCOC(=O)c1c(C)cc2nc(COC(=O)NCCO)n(-c3ccccc3S(=O)(=O)NC)c(=O)c2c1C` [Example 2, 2-(2-Hydroxy-ethylcarbamoyloxymethyl)-5,7-dimethyl-3-(2-methylsulfamoyl-phenyl)-4-oxo-3,4-dihydro-quinazoline-6-carboxylic acid ethyl ester] had an EC50 at hCB1 receptor [1] of 132 ± 19 nM. Besides, the Ki on hCB1 receptor [2] was 34 ± 3 nM; on human CB2 receptors, 11 ± 3.5 nM. Also, the “D50 value in the neuropathic pain model of test III” value in series [3] came out at 0.5 mg/kg.

Source of the values: US8552015B2, “Quinazolinone derivatives and their use as CB agonists” (Novartis AG, priority 2002, dated 2013).
